{"source": "patent US8642622B2", "about": "“Piperidinyl compound as a modulator of chemokine receptor activity” (Bristol-Myers Squibb Company, priority 2010, dated 2014)", "key": {"[1]": {"target": "T1, human cardiac sodium channel, SCNSA (Homo sapiens, UniProt Q14524)", "T1 construct": "expressed in transfected cells; host or cells: HEK-293", "T1 sequence (Q14524 whole entry)": "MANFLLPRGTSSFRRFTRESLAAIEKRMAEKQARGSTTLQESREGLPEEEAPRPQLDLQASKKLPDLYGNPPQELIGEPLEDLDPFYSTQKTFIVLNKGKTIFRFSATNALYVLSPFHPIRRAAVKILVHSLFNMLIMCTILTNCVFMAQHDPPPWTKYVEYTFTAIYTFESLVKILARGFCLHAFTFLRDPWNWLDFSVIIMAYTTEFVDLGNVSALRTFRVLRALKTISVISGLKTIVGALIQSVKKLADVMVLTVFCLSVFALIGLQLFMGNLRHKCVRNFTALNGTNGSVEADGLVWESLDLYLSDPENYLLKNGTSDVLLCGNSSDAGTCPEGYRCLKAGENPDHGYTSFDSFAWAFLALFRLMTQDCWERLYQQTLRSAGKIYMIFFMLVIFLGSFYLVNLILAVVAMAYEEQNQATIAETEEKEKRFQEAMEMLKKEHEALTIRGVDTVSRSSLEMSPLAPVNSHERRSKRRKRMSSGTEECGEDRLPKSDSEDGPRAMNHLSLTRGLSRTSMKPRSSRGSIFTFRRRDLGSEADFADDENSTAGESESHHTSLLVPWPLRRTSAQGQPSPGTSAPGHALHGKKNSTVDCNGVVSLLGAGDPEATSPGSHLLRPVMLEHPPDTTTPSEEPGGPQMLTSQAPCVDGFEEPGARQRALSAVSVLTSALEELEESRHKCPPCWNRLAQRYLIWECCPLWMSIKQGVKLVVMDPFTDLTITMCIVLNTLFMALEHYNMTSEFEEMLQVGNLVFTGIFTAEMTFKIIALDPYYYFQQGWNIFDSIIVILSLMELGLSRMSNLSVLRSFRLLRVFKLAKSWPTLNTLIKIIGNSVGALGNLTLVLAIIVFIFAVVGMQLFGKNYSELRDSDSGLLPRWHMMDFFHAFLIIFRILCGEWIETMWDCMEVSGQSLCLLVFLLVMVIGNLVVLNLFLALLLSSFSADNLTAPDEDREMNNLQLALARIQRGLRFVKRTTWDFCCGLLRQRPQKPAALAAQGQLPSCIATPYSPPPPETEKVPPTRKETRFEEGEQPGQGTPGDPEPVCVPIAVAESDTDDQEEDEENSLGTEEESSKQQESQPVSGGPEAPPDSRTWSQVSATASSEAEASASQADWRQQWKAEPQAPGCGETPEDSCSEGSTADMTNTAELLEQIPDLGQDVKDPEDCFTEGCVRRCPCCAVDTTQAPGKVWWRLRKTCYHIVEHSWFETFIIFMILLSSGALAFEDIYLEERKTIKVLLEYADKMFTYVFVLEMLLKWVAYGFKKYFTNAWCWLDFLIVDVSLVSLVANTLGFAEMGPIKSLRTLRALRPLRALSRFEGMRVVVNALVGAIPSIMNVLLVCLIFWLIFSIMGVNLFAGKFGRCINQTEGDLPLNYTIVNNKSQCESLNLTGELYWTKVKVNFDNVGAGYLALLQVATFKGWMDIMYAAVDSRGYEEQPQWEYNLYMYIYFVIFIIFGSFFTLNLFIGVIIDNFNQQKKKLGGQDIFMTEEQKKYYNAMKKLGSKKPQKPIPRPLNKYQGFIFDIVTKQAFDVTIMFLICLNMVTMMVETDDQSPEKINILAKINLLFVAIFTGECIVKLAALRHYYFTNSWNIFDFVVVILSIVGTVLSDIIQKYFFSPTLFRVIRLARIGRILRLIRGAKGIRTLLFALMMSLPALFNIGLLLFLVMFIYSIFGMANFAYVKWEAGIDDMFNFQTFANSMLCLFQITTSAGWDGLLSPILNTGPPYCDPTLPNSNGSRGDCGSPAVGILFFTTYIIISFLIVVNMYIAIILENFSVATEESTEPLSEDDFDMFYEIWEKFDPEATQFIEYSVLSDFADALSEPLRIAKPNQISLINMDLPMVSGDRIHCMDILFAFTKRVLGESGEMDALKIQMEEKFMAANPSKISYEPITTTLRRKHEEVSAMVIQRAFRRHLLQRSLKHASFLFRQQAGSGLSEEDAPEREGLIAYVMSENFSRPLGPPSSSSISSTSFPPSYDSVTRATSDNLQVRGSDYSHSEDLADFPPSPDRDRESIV", "assay": "Sodium channel whole-cell patch-clamp assay", "assay_type": "cell-based", "conditions": "HEK293, HEK-293, protein-free buffer, read-out: Na channel, % inh", "procedure": "Whole-cell patch-clamp was used to directly measure inward sodium currents in HEK-293 cells expressing the human cardiac sodium channel, SCNSA. After reach steady-state effect in the presence of drug, rate-dependence was assessed by stimulation at frequencies of 1 Hz and 4 Hz. Experiments were carried out using an aqueous buffer at pH 7.4 and at room temperature. There is no protein in the buffer and drug concentrations reported are nominal free drug levels. Test article was evaluated up to 10 μM (protein-free buffer). […] Data is reported as percent inhibition at a fixed concentration."}, "[2]": {"assay": "Electrocardiography in anesthetized rabbits (rabbit in vivo EP effect)", "procedure": "A dose-response study of test compound was conducted in anesthetized rabbits to assess the cardiac electrophysiologic profile established in the cellular ion channel assays.\nExperiments were performed in propofol-fentanyl anesthetized closed-chest male rabbits. A body surface electrocardiogram (ECG) and an intra-cardiac His-bundle electrogram were continuously monitored and recorded during the studies, using a PoNeMah system and a Prucka electrophysiological recording system, respectively. Test compound was prepared on the day of study in a vehicle of PEG400:ethanol:water (1:1:1) at a dosing concentration of 30 mg/mL. Test compound (n=3) or vehicle (n=3) was given intravenously over 5 minutes via an infusion pump at incremental doses of 3, 10 and 30 mg/kg. The interval between doses was 10 minutes, allowing for a 5-minute test agent infusion and a 5-minute rest period. Blood was sampled at baseline (pre-drug infusion) and immediately at the end of each infusion. For the 30 mg/kg dose, additional blood samples were taken at 10, 20 and 30 minutes after the end of infusion.\nPR interval, QRS duration and QT interval were averaged from a 1 minute ECG recording period at time of blood sampling. QT interval was corrected for heart rate effects using both Fridericia (QTcf) and Van der Water (QTcv) formulae. AH and HV intervals, representing A-V node conduction and His-Purkinje conduction, respectively, were assessed by manual measurements from the His-bundle electrogram. Data were expressed as percent change from pre-drug baseline (mean±SEM) for PR, QRS, AH and HV intervals as well as delta change from the pre-drug infusion baseline (mean±SEM) for QTc intervals. Changes of 10% in PR, QRS, and AH intervals, and 20% in HV interval, as well as >10 ms in QTc interval are considered significant based on experience with the model."}, "[3]": {"assay": "Single-dose pharmacokinetics in rats", "assay_type": "in vivo", "procedure": "Serial blood samples were collected for all studies from the jugular vein at various time points post dose (0.17 (or 0.25 for oral), 0.5, 0.75, 1, 2, 4, 6, 8 and 24 h, for example). Plasma samples were analyzed by LC-MS/MS.\nAdditional studies evaluating suspensions of crystalline drug substance in aqueous medium were performed as described above."}, "[4]": {"assay": "Single-dose pharmacokinetics in dogs", "assay_type": "in vivo", "procedure": "Serial blood samples were collected for all studies at various time points post dose (0.17 (or 0.25 for oral), 0.5, 0.75, 1, 2, 4, 6, 8 and 24 h, for example). Plasma samples were analyzed by LC-MS/MS."}}, "data": [{"smiles": "CC(C)[C@@H](NC(=O)[C@@H]1CC[C@@H](O)C1)C(=O)N1CC[C@](O)(c2ccc(Cl)cc2)C(C)(C)C1", "note": "[Example 572]", "values": [{"measurement": "inhibition at 10 µM", "setting": "[1]", "value": 25, "unit": "%"}, {"measurement": "Cmax: Free drug (at NOEL dose)", "setting": "[2]; at NOEL dose, free drug", "value": "< 6.3", "unit": "µM"}, {"measurement": "Cmax: Free drug (at QT effect dose)", "setting": "[2]; at QT effect dose, free drug", "value": 6.3, "unit": "µM"}, {"measurement": "QT effect Dose", "setting": "[2]; i.v. infusion 3, 10, 30 mg/kg", "value": 10, "unit": "mg/kg"}, {"measurement": "QTcf, delta", "setting": "[2]; i.v. infusion, change from pre-drug baseline", "value": "+22 ms"}, {"measurement": "clearance", "setting": "[3]; male, Sprague-Dawley, rat, plasma, intravenous", "value": 29, "unit": "mL/min/kg"}, {"measurement": "bioavailability", "setting": "[3]; male, Sprague-Dawley, rat, plasma, po, crystalline suspension in aqueous medium, read-out: Relative bioavailability when dosed as a crystalline suspension", "value": "> 90", "unit": "%"}, {"measurement": "Rat oral bioavailability when dosed as solution", "setting": "[3]; oral solution", "value": 37, "unit": "%"}, {"measurement": "clearance", "setting": "[4]; male, beagle, dog, plasma, intravenous", "value": 4.9, "unit": "mL/min/kg"}, {"measurement": "dog oral bioavailability when dosed as solution", "setting": "[4]; oral solution", "value": 72}]}]}
